Laboratory results as given in ChEMBL document CHEMBL1201862, “PubChem BioAssay data set” (2004).
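Cultured in 96-well plates, cells were exposed to test compound for 48 hours across five concentrations. The concentration for 50% growth inhibition is given as GI50.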 Activity calls are given as the source filed them. Rule as the data show it: active = GI50 up to about 1.1 µM and inactive = higher.

How the values were obtained:
Assay in all cases: growth of human tumour cells (NCI), 48 h
SK-MEL-2 = test system: SK-MEL-2
DU-145 = test system: DU-145
Malme-3M = test system: Malme-3M
HOP-62 = test system: HOP-62
NCI-H460 = test system: NCI-H460
M14 = test system: M14
786-0 = test system: 786-0
COLO 205 = test system: COLO 205
CCRF-CEM = test system: CCRF-CEM
OVCAR-5 = test system: OVCAR-5
HL-60 = test system: HL-60
UO-31 = test system: UO-31
OVCAR-8 = test system: OVCAR-8
Hs-578T = test system: Hs-578T
SF-295 = test system: SF-295
SW-620 = test system: SW-620
BT-549 = test system: BT-549
CAKI-1 = test system: CAKI-1
HT-29 = test system: HT-29
MDA-MB-231 = test system: MDA-MB-231

Row | Compound | GI50 (SK-MEL-2) | GI50 (DU-145) | GI50 (Malme-3M) | GI50 (HOP-62) | GI50 (NCI-H460) | GI50 (M14) | GI50 (786-0) | GI50 (COLO 205) | GI50 (CCRF-CEM) | GI50 (OVCAR-5) | GI50 (HL-60) | GI50 (UO-31) | GI50 (OVCAR-8) | GI50 (Hs-578T) | GI50 (SF-295) | GI50 (SW-620) | GI50 (BT-549) | GI50 (CAKI-1) | GI50 (HT-29) | GI50 (MDA-MB-231)
1 | O=C1c2cccnc2-c2nccc3c2c1nc1cc(Br)ccc13 | 0.165 µM (active) | 0.121 µM (active) | 0.108 µM (active) | 0.155 µM (active) | 0.138 µM (active) | 0.0553 µM (active) | 0.0713 µM (active) | 0.798 µM (active) | 0.0989 µM (active) | 0.24 µM (active) | 0.0405 µM (active) | 0.221 µM (active) | 0.0659 µM (active) | 0.204 µM (active) | 0.227 µM (active) | < 0.0264 µM (active) | 0.25 µM (active) | 0.218 µM (active) | 0.989 µM (active) | 0.103 µM (active)
2 | COc1cccc(Nc2n[nH]c(NS(=O)(=O)c3cc(C)c(Cl)cc3S)n2)c1 | > 100 µM (inactive) | > 100 µM (inactive) | > 100 µM (inactive) | > 100 µM (inactive) | > 100 µM (inactive) | > 100 µM (inactive) | > 100 µM (inactive) | > 100 µM (inactive) | > 100 µM (inactive) | > 100 µM (inactive) | > 100 µM (inactive) | > 100 µM (inactive) | > 100 µM (inactive) | > 100 µM (inactive) | > 100 µM (inactive) | > 100 µM (inactive) | > 100 µM (inactive) | > 100 µM (inactive) | > 100 µM (inactive) | > 100 µM (inactive)
3 | O=c1cc(-c2ccccc2)c2ccc(O)c(CN(CCCl)CCCl)c2o1 | 22.8 µM (inactive) | 33.6 µM (inactive) | 21 µM (inactive) | 17.2 µM (inactive) | 17.8 µM (inactive) | 20.1 µM (inactive) | 18.5 µM (inactive) | 12.4 µM (inactive) | 3.07 µM (inactive) | 17.8 µM (inactive) | 13.4 µM (inactive) | 14.4 µM (inactive) | 15.8 µM (inactive) | 24.9 µM (inactive) | 11 µM (inactive) | 18.8 µM (inactive) | 10.6 µM (inactive) | 15.5 µM (inactive) | 10.3 µM (inactive) | 15.7 µM (inactive)
4 | COC(=O)C1CC2C=CC1N(C(=O)OCc1ccccc1)C2 (stereo not given) | > 100 µM (inactive) | > 100 µM (inactive) | 26 µM (inactive) | > 100 µM (inactive) | > 100 µM (inactive) | > 100 µM (inactive) | > 100 µM (inactive) | > 100 µM (inactive) | > 100 µM (inactive) | > 100 µM (inactive) | > 100 µM (inactive) | > 100 µM (inactive) | > 100 µM (inactive) | > 100 µM (inactive) | > 100 µM (inactive) | > 100 µM (inactive) | > 100 µM (inactive) | > 100 µM (inactive) | > 100 µM (inactive) | > 100 µM (inactive)
5 | CC(=O)/C(=C(/Br)I)c1ccccc1 | 4.82 µM (inactive) | 15.8 µM (inactive) | 10.9 µM (inactive) | 14.1 µM (inactive) | 20.3 µM (inactive) | 6.87 µM (inactive) | 9.04 µM (inactive) | 13.6 µM (inactive) | 1.58 µM (inactive) | 18.1 µM (inactive) | 1.95 µM (inactive) | 12.4 µM (inactive) | 11.6 µM (inactive) | 30.7 µM (inactive) | 15.5 µM (inactive) | 3.15 µM (inactive) | 1.97 µM (inactive) | 3.03 µM (inactive) | 4.06 µM (inactive) | 13.2 µM (inactive)
6 | CC1=NN(C(=O)c2ccccc2O)C(c2ccccc2Cl)C1C(=O)Nc1ccccc1 (stereo not given) | 4.74 µM (inactive) | < 0.0291 µM (active) | 0.0565 µM (active) | 0.262 µM (active) | 0.0964 µM (active) | 0.054 µM (active) | < 0.0457 µM (active) | 5.26 µM (inactive) | 0.0288 µM (active) | 0.458 µM (active) | 0.161 µM (active) | < 0.0226 µM (active) | 0.0986 µM (active) | < 0.01 µM (active) | 0.0975 µM (active) | 0.388 µM (active) | < 0.0256 µM (active) | 0.159 µM (active) | 2.96 µM (inactive) | 0.647 µM (active)
7 | COC1CC(NC(=O)C(F)(F)F)C(OC(C)=O)C(C)O1 (stereo not given) | > 100 µM (inactive) | > 100 µM (inactive) | > 100 µM (inactive) | > 100 µM (inactive) | > 100 µM (inactive) | > 100 µM (inactive) | > 100 µM (inactive) | > 100 µM (inactive) | > 100 µM (inactive) | > 100 µM (inactive) | > 100 µM (inactive) | > 100 µM (inactive) | > 100 µM (inactive) | > 100 µM (inactive) | > 100 µM (inactive) | > 100 µM (inactive) | > 100 µM (inactive) | > 100 µM (inactive) | > 100 µM (inactive) | > 100 µM (inactive)
8 | C=C1[C@@H](O)C[C@@]23CC[C@@H]4[C@@]5(C)CC[C@@H](OC(C)=O)C(C)(C)[C@@H]5C[C@@H](OC5OC(COC(C)=O)C(O)C(O)C5O)[C@@]4(C)C2=CC[C@H]3[C@H]1C (stereo not given in full) | 2.34 µM (inactive) | 10.5 µM (inactive) | 9.48 µM (inactive) | 11.7 µM (inactive) | 4.13 µM (inactive) | 4.49 µM (inactive) | 6.14 µM (inactive) | 2 µM (inactive) | 2.97 µM (inactive) | 2.22 µM (inactive) | 2.27 µM (inactive) | 14.1 µM (inactive) | 7.13 µM (inactive) | 5.66 µM (inactive) | 4.06 µM (inactive) | 6.44 µM (inactive) | 8.17 µM (inactive) | 13.1 µM (inactive) | 2.1 µM (inactive) | 5.47 µM (inactive)
9 | CCOC(=O)C(C)(Cc1ccc(O)cn1)NC(=O)c1ccccc1 (stereo not given) | > 100 µM (inactive) | > 100 µM (inactive) | > 100 µM (inactive) | > 100 µM (inactive) | > 100 µM (inactive) | > 100 µM (inactive) | > 100 µM (inactive) | > 100 µM (inactive) | > 100 µM (inactive) | > 100 µM (inactive) | > 100 µM (inactive) | > 100 µM (inactive) | > 100 µM (inactive) | > 100 µM (inactive) | > 100 µM (inactive) | > 100 µM (inactive) | > 100 µM (inactive) | > 100 µM (inactive) | > 100 µM (inactive) | > 100 µM (inactive)
10 | COc1cc(Cc2cc3c(c(C(=O)O)c2Br)OCO3)cc(OC)c1OC | > 100 µM (inactive) | > 100 µM (inactive) | 57.8 µM (inactive) | > 100 µM (inactive) | > 100 µM (inactive) | 70.8 µM (inactive) | > 100 µM (inactive) | > 100 µM (inactive) | 34.6 µM (inactive) | > 100 µM (inactive) | 21.7 µM (inactive) | > 100 µM (inactive) | > 100 µM (inactive) | > 100 µM (inactive) | > 100 µM (inactive) | 69.2 µM (inactive) | 47.1 µM (inactive) | > 100 µM (inactive) | > 100 µM (inactive) | > 100 µM (inactive)
